Experimental data: patent publication US11185073B2, “Microbiocidal quinoline (thio)carboxamide derivatives” (SYNGENTA PARTICIPATIONS AG, priority 2017, dated 2021)

Columns and labels:
[1] = system: Monographella nivalis (Microdochium nivale); assay: Monographella nivalis (Microdochium nivale) / liquid culture (foot rot cereals); type: cell-based; details: 96 h, growth inhibition photometrically 4-5 days after application, compared to untreated control
Fusarium culmorum [2] = assay: whole plant or invertebrate; type: in vivo; details: in Triticum aestivum, read-out: control of Fusarium culmorum
[3] = system: Glomerella lagenarium (Colletotrichum lagenarium); assay: Glomerella lagenarium (Colletotrichum lagenarium) / liquid culture (anthracnose); type: cell-based; details: Colletotrichum orbiculare, growth inhibition photometrically 3-4 days after application, compared to untreated control
[4] = system: Magnaporthe grisea (Pyricularia oryzae); assay: microbe, parasite or virus in culture; type: cell-based; details: 72 h, read-out: control of Magnaporthe grisea
Fusarium culmorum [5] = assay: microbe, parasite or virus in culture; type: cell-based; details: 72 h, read-out: control of Fusarium culmorum
[6] = system: Gibberella zeae (Fusarium graminearum); assay: whole plant or invertebrate; type: in vivo; details: in Triticum aestivum, read-out: control of Gibberella zeae
[7] = system: Botryotinia fuckeliana (Botrytis cinerea); assay: Botryotinia fuckeliana (Botrytis cinerea) / liquid culture (gray mould); type: cell-based; details: 72 h, growth inhibition photometrically 3-4 days after application, compared to untreated control

SMILES	inhibition of growth at 20 ppm [1]	pest or weed control at 200 ppm (Fusarium culmorum [2])	inhibition of growth at 20 ppm [3]	inhibition of growth at 20 ppm [4]	melting point	inhibition of growth at 20 ppm (Fusarium culmorum [5])	pest or weed control at 200 ppm [6]	inhibition of growth at 20 ppm [7]
CC(C)(C)COCC(C)(CC(F)(F)F)NC(=O)c1cnc2c(F)cccc2c1 (stereo not drawn) [E.001, N-[1-(2,2-dimethyl-propoxymethyl)-3,3,3-trifluoro-1-methyl-propyl]-8-fluoro-quinoline-3-carboxamide]	≥ 80%	≥ 80%	≥ 80%	≥ 80%	74 to 78 °C	≥ 80%	≥ 80%	≥ 80%
CC1(C)CC(OCC(C)(CC(F)(F)F)NC(=O)c2cnc3c(Cl)cccc3c2)C1 (stereo not drawn) [E.002, 8-chloro-N-[1-[(3,3-dimethyl-cyclobutoxy)-methyl]-3,3,3-trifluoro-1-methylpropyl]-quinoline-3-carboxamide]	≥ 80%	≥ 80%	≥ 80%	≥ 80%	127 to 130 °C	≥ 80%		≥ 80%
CC(COC1CCC(F)(F)CC1)(CC(F)(F)F)NC(=O)c1cnc2c(F)cccc2c1 (stereo not drawn) [E.003, N-[1-[(4,4-difluoro-cyclohexoxy)-methyl]-3,3,3-trifluoro-1-methyl-propyl]-8-fluoro-quinoline-3-carboxamide]	≥ 80%	≥ 80%	≥ 80%	≥ 80%	42 to 44 °C	≥ 80%	≥ 80%	≥ 80%
CC1(C)CC(OCC(C)(CC(F)(F)F)NC(=O)c2cnc3c(F)cccc3c2)C1 (stereo not drawn) [E.004, N-[1-[(3,3-dimethyl-cyclobutoxy)-methyl]-3,3,3-trifluoro-1-methyl-propyl]-8-fluoro-quinoline-3-carboxamide]	≥ 80%	≥ 80%	≥ 80%	≥ 80%	80 to 84 °C	≥ 80%		≥ 80%
CC(COc1ccc(Cl)cc1)(CC(F)(F)F)NC(=O)c1cnc2c(F)cccc2c1 (stereo not drawn) [E.005, N-[1-[(4-chloro-phenoxy)methyl]-3,3,3-trifluoro-1-methyl-propyl]-8-fluoro-quinoline-3-carboxamide]	≥ 80%	≥ 80%	≥ 80%	≥ 80%	94 to 96 °C	≥ 80%		≥ 80%
CC(COC1CCC1)(CC(F)(F)F)NC(=O)c1cnc2c(Cl)cccc2c1 (stereo not drawn) [E.012, 8-chloro-N-[1-(cyclobutoxymethyl)-3,3,3-trifluoro-1-methyl-propyl]-quinoline-3-carboxamide]	≥ 80%	≥ 80%	≥ 80%	≥ 80%		≥ 80%	≥ 80%	≥ 80%
C[C@](COC1CCCCC1)(CC(F)(F)F)NC(=O)c1cnc2c(F)cccc2c1 [E.016, N-[(1R)-1-(cyclo-hexoxymethyl)-3,3,3-trifluoro-1-methyl-propyl]-8-fluoro-quinoline-3-carboxamide]	≥ 80%	≥ 80%	≥ 80%	≥ 80%	80 to 85 °C	≥ 80%		≥ 80%
CC(COc1ccccc1)(CC(F)(F)F)NC(=O)c1cnc2c(F)cccc2c1 (stereo not drawn) [E.019, 8-fluoro-N-[3,3,3-trifluoro-1-methyl-1-(phenoxy-methyl)propyl]-quinoline-3-carboxamide]	≥ 80%	≥ 80%	≥ 80%	≥ 80%		≥ 80%	≥ 80%	≥ 80%
C=C(C)COCC(C)(CC(C)C)NC(=O)c1cnc2c(F)cccc2c1 (stereo not drawn) [E.020, N-[1,3-dimethyl-1-(2-methylallyloxy-methyl)butyl]-8-fluoro-quinoline-3-carboxamide]	≥ 80%	≥ 80%	≥ 80%	≥ 80%		≥ 80%	≥ 80%	≥ 80%
CC(C)CC(C)(COC1CCC1)NC(=O)c1cnc2c(F)cccc2c1 (stereo not drawn) [E.023, N-[1-(cyclo-butoxymethyl)-1,3-dimethyl-butyl]-8-fluoro-quinoline-3-carboxamide]	≥ 80%	≥ 80%	≥ 80%	≥ 80%		≥ 80%	≥ 80%	≥ 80%
CC(C)COCC(C)(CC(C)C)NC(=O)c1cnc2c(F)cccc2c1 (stereo not drawn) [E.025, 8-fluoro-N-[1-(iso-butoxymethyl)-1,3-dimethyl-butyl]-quinoline-3-carboxamide]	≥ 80%	≥ 80%	≥ 80%	≥ 80%		≥ 80%	≥ 80%	≥ 80%
CC(COC1CCCCCC1)(CC(F)(F)F)NC(=O)c1cnc2c(F)cccc2c1 (stereo not drawn) [E.026, N-[1-(cyclohept-oxymethyl)-3,3,3-trifluoro-1-methyl-propyl)-8-fluoro-quinoline-3-carboxamide]	≥ 80%	≥ 80%	≥ 80%	≥ 80%	80 to 85 °C	≥ 80%		≥ 80%
CC(COC1CCCCC1)(CC(F)(F)F)NC(=O)c1cnc2c(F)cccc2c1 (stereo not drawn) [E.027, N-[1-(cyclohexoxy-methyl)-3,3,3-trifluoro-1-methyl-propyl]-8-fluoro-quinoline-3-carboxamide]	≥ 80%	≥ 80%	≥ 80%	≥ 80%		≥ 80%	≥ 80%	≥ 80%
CC(C)CC(C)(COCc1ccccc1)NC(=O)c1cnc2c(F)cccc2c1 (stereo not drawn) [E.030, N-[1-(benzyloxy-methyl)-1,3-dimethyl-butyl]-8-fluoro-quinoline-3-carboxamide]	≥ 80%		≥ 80%	≥ 80%	120 to 122 °C	≥ 80%		≥ 80%
COCC(C)(CC(C)C)NC(=O)c1cnc2c(F)cccc2c1 (stereo not drawn) [E.032, 8-fluoro-N-[1-(methoxymethyl)-1,3-dimethyl-butyl]quinoline-3-carboxamide]					136 to 138 °C	≥ 80%		≥ 80%
